Measurements published in US9119398B2, “Plant growth regulating compounds” (Syngenta Participations AG, priority 2012, dated 2015).

Tested on: Orobanche cumana Wallr. seeds
Test: Germination of preconditioned Orobanche cumana seeds on glass fiber filter paper in petri dishes
Assay type: in vivo
Settings: mean, N = 5 × 100 seeds, seed lot IN153
Protocol: The effect of compounds of Formula (I) on germination of Orobanche cumana Wallr. seeds was evaluated on glass fiber filter paper (GFFP) in petri dishes. Seeds were preconditioned at moisture and suitable temperature to become responsive to the specific chemical germination stimulants.
Test compounds were dissolved in DMSO (10 000 mg l^−1) and stored at room temperature in a desiccators with desiccants. The stock solutions were dissolved with deionised water to the appropriate final test concentration.
Seeds of O. cumana race ‘F’ (IN153) were collected from a sunflower field in Manzanilla (Seville, Spain) in 2006 and stored at room temperature. To separate seeds from heavy organic debris, a modified sucrose floatation technique as described by Hartman & Tanimonure (Plant Disease (1991), 75, p. 494) was applied. Seeds were filled into a separation funnel and stirred in water. When seeds floated to the surface, the water fraction containing heavy debris was discarded. Seeds were re-suspended in 2.5M sucrose solution (specific gravity of 1.20) and heavy debris was allowed to settle down for 60 min After removing debris, seeds were disinfected in 1% sodium hypochlorite solution and 0.025% (v/v) Tween 20 for 2 min. The seeds were decanted onto two layers of cheesecloth, rinsed with sterile deionised water and re-suspended in sterile deionised water. Two ml of the seed suspension containing approximately 150-400 seeds were spread evenly on two layers of sterile glass fiber filter paper disc ([…]) in Petri dishes (Ø9 cm). After wetting the discs with 3 ml sterile deionised water, petri dishes were sealed with parafilm. Seeds were incubated for 10 days at 20° C. in the dark for seed conditioning. The upper disc with conditioned seeds was briefly dried, transferred to a petri dish lined with a dry GFFP disc, and wetted with 6 ml of the appropriate test solution. The compounds of Formula (I) were tested at concentrations of 0.001, 0.01, 0.1, or 1 mg l^−. The strigolactone analogue GR24 was included as positive control and 0.01% DMSO as negative control. All treatments were tested in five replicates. Seeds were re-incubated at 20° C. in the dark and examined for germination 10 days later. The radicles of germinated seeds were stained for 5 min with blue ink (MIGROS, Switzerland) in 5% acetic acid according to Long et al. (Seed Science Research (2008), 18, p. 125). After staining, seeds were photographed using a camera stand mounted with a digital SLR camera (Canon EOS 5D). Germination of 100 seeds per replicate was evaluated on digital images. Seeds were considered germinated when the radicle protruded from the seed coat.

[1] = Table B2, concentration 0.01 mg 1^−1, DMSO control 2.4% germination
[2] = Table B2, concentration 0.1 mg 1^−1, DMSO control 2.4% germination
[3] = Table B2, concentration 1 mg 1^−1, DMSO control 2.4% germination
[4] = Table B3, concentration 0.001 mg 1^−1, DMSO control 0% germination
[5] = Table B3, concentration 0.01 mg 1^−1, DMSO control 0% germination
[6] = Table B3, concentration 0.1 mg 1^−1, DMSO control 0% germination
[7] = Table B1, concentration 0.001 mg 1^−1, DMSO control 0.4% germination
[8] = Table B1, concentration 0.1 mg 1^−1, DMSO control 0.4% germination
[9] = Table B1, concentration 1 mg 1^−1, DMSO control 0.4% germination

| SMILES | Germination (%) [1] [%] | Germination (%) [2] [%] | Germination (%) [3] [%] | also measured |
| --- | --- | --- | --- | --- |
| CC1=CC(O/C=C2\CCN(c3ccccc3)C2=O)OC1=O (stereo not drawn) [I-3, (3E)-3-[(4-methyl-5-oxo-2H-furan-2-yl)oxymethylene]-1-phenyl-pyrrolidin-2-one] | 0 | 1.6 | 19.2 |  |
| CC1=CC(O/C=C2\CC(C)N(c3ccccc3)C2=O)OC1=O (stereo not drawn) [I-4, (3E)-5-methyl-3-[(4-methyl-5-oxo-2H-furan-2-yl)oxymethylene]-1-phenyl-pyrrolidin-2-one] | 0.6 | 1 | 18.2 |  |
| CC1=CC(O/C=C2\CCCN(c3ccccc3)C2=O)OC1=O (stereo not drawn) [I-5, (3E)-3-[(4-methyl-5-oxo-2H-furan-2-yl)oxymethylene]-1-phenyl-piperidin-2-one] | 1 | 0 | 42.2 |  |
| CC1=CC(O/C=C2\CC(=O)N(C)C2=O)OC1=O (stereo not drawn) [I-7, (3E)-1-methyl-3-[(4-methyl-5-oxo-2H-furan-2-yl)oxymethylene]pyrrolidine-2,5-dione] | 1 | 1.4 | 17.2 |  |
| CC1=C[C@H](O/C=C2/C(=O)N[C@@H]3C=CC[C@H]23)OC1=O [Ia-1′, (3E,3aR,6aR)-3-[[(2R)-4-methyl-5-oxo-2H-furan-2-yl]oxymethylene]-1,3a,4,6a-tetrahydrocyclopenta[b]pyrrol-2-one] |  |  |  | Germination (%) (Table B6, concentration 0.001 mg 1^−1, DMSO control 2.4% germination): 68.0%; Germination (%) (Table B6, concentration 0.1 mg 1^−1, DMSO control 2.4% germination): 55.3%; Germination (%) (Table B6, concentration 1 mg 1^−1, DMSO control 2.4% germination): 54.8% |
| CC1=CC(O/C=C2/C(=O)NC3CCCC23)OC1=O (stereo not drawn) [Ia-2, (3E)-3-[(4-methyl-5-oxo-2H-furan-2-yl)oxymethylene]-1,3a,4,5,6,6a-hexahydrocyclopenta[b]pyrrol-2-one] | 75.4 | 65.4 | 83.4 |  |
| CC1=CC(O/C=C2\CCC(c3ccccc3)NC2=O)OC1=O (stereo not drawn) [Ia-12, (3E)-3-[(4-methyl-5-oxo-2H-furan-2-yl)oxymethylene]-6-phenyl-piperidin-2-one] |  |  |  | Germination (%) [4]: 93.3%; Germination (%) [5]: 86.8%; Germination (%) [6]: 92.4% |
| CC1=CC(O/C=C2/C(=O)N(C(=O)OC(C)(C)C)C3C=CCC23)OC1=O (stereo not drawn) [Ib-1, tert-butyl (3E)-3-[(4-methyl-5-oxo-2H-furan-2-yl)oxymethylene]-2-oxo-4,6a-dihydro-3aH-cyclopenta[b]pyrrole-1-carboxylate] |  |  |  | Germination (%) [7]: 0%; Germination (%) [8]: 25.8%; Germination (%) [9]: 92.6% |
| CC1=CC(O/C=C2/C(=O)N(C(=O)OC(C)(C)C)C3CCCC23)OC1=O (stereo not drawn) [Ib-2, tert-butyl (3E)-3-[(4-methyl-5-oxo-2H-furan-2-yl)oxymethylene]-2-oxo-4,5,6,6a-tetrahydro-3aH-cyclopenta[b]pyrrole-1-carboxylate] |  |  |  | Germination (%) [7]: 0%; Germination (%) [8]: 18.2%; Germination (%) [9]: 54.8% |
| CC1=CC(O/C=C2\CC(C)N(C(=O)OC(C)(C)C)C2=O)OC1=O (stereo not drawn) [Ib-6, tert-butyl (3E)-5-methyl-3-[(4-methyl-5-oxo-2H-furan-2-yl)oxymethylene]-2-oxo-pyrrolidine-1-carboxylate] |  |  |  | Germination (%) [7]: 0.4%; Germination (%) [8]: 1.8%; Germination (%) [9]: 5.6% |
| CC1=CC(O/C=C2\CCN(C(=O)OC(C)(C)C)C2=O)OC1=O (stereo not drawn) [Ib-8, tert-butyl (3E)-3-[(4-methyl-5-oxo-2H-furan-2-yl)oxymethylene]-2-oxo-pyrrolidine-1-carboxylate] | 0.2 | 2.8 | 1.4 |  |
| CC1=CC(O/C=C2\CC(c3ccccc3)N(C(=O)OC(C)(C)C)C2=O)OC1=O (stereo not drawn) [Ib-10, tert-butyl (3E)-3-[(4-methyl-5-oxo-2H-furan-2-yl)oxymethylene]-2-oxo-5-phenyl-pyrrolidine-1-carboxylate] |  |  |  | Germination (%) [4]: 72.8%; Germination (%) [5]: 72.4%; Germination (%) [6]: 71.8% |
